Literature values in patent US4276288A, “Dehydrooligopeptides, their production and their medicinal use” (Troponwerke GmbH & Co., KG, priority 1976, dated 1981).
Like-named read-outs stand apart in the source and are kept apart here.

Test system: tumour cells

For `O=P1(N(CCCl)CCCl)NCCCO1` (centres unmarked) [cyclophosphamide], the tumour cells destroyed (LD10 dosage) is given as 99.999% and the tumour cells destroyed (one eighth of the LD10 dose) is given as 90%.
